US6031135A, “Trimethylsphingosine derivatives” (Oncomembrane, Inc., priority 1996, dated 2000)
Entries after “also recorded” stand apart in the source; their conditions may differ.

Assays:
GMP-140 = GMP-140 expression in platelets (flow cytometry with mAb AC1.2); type: cell-based; conditions: platelets preincubated with compound; thrombin or PMA activation
Description: GMP-140 expression was determined by (i) flow cytometry with mAb AC1.2, which is directed to GMP-140 and obtained from Dr. Furie (Tufts Univ. Sch. Med., Boston, Mass.) and (ii) adhesion of HL60 cells on platelet-coated solid phase.
A suspension of platelets (1×10^8 /ml) in Tyrode buffer was preincubated with inhibitor at pH 7.2, 37° C., for 5 minutes, then supplemented with activator, either thrombin (final concentration 1 U/ml) or phorbol 12-myristate 13-acetate (PMA) (final concentration 10^-7 M), and then the mixture was incubated at 37° C. for 10 minutes. Platelets were fixed with an equal volume of 2% (w/v) paraformaldehyde in PBS and washed 2 times with PBS containing 1% (w/v) BSA.
The paraformaldehyde-fixed platelets were incubated with 50 μl of mAb AC1.2 (2.5 μg/ml) at room temperature for 30 minutes. […]
The platelets were analyzed in an Epics flow cytometer (Coulter Corp.) with suitable gating. To calculate the inhibitory effect of various reagents, the mean fluorescence intensity of resting platelets (obtained on incubation of platelets without activator) was subtracted from the value for the activated platelet sample.

HL60 cells = experiment: HL60 adhesion on activated platelet-coated solid phase; type: cell-based, human; conditions: thrombin-stimulated and PMA-stimulated platelets
Description: HL60 (a human promylelocytic cell line available from the ATCC under accession number CCL 240) adhesion on resting or activated platelet-coatedsolid phase was evaluated as follows. Each well of a 48-well plate (Costar Scientific, Cambridge, Mass.) was filled with a poly-L-lysine solution (100 μg/ml in PBS) and incubated for 1 hour. Each well then was washed with PBS and then 150 μl of PBS containing 6×10^7 resting or activated platelets were added to each well and the plate was incubated for 1 hour. Plates were centrifuged (300×g for 7 minutes) and incubated a further 30 minutes at room temperature. Bound platelets were fixed by addition of 0.1% (w/v) glutaraldehyde in PBS for 2 minutes at 4° C. Each well was washed with 10 mM glycine in PBS and plates were incubated with 5% (w/v) BSA containing 0.1% (w/v) sodium azide, 10 mM glycine in PBS for 1 hour at room temperature.

neutrophils [1] = experiment: phagokinetic activity of neutrophils on gold sol-coated plates; type: cell-based, human
Source text: The phagokinetic activity of neutrophils on gold sol-coated plates can be determined by a technique essentially as taught in Albrecht-Buehler (Cell, 11, 395, 1977). […] The TMS-dependent inhibitory effect is reversed completely when the culture medium is replaced with TMS-free medium. Thus, the inhibitory effect of TMS on phagokinetic activity is not dependent on cytotoxicity.

erythrocyte = erythrocyte metabolic activity under blood storage conditions; type: cell-based; conditions: in vitro, normal blood storage conditions; reduction of erythrocyte enzyme activity
Source text: Similar results can be expected for leukocytes and platelets.

neutrophils [2] = experiment: neutrophil trans-endothelial migration through HUVEC monolayer; type: cell-based, human; conditions: IL-1β-activated EC's; pre-treatment of neutrophils
Description: A characteristic of neutrophils is the ability to adhere to activated EC's and to migrate through the EC monolayer into the vascular or extravascular matrix. The effect of TMS on neutrophil interactions with EC's and their subsequent trans-endothelial migration thereof can be monitored in vitro using human umbilical endothelial cells (HUVEC's) (Luscinskas et al., J. Imm., 146, 1617, 1991). Neutrophils are added to a HUVEC monolayer and neutrophil-HUVEC interactions are assessed microscopically following fixation, embedding and staining of monolayer sections.
Under physiological conditions, neutrophils are able to migrate into the collagenous matrix through the EC monolayer. When EC's are activated with IL-1β in M199 medium for 4 hours, neutrophils migrate into the collagenous matrix within 90 minutes.

neutrophils [3] = experiment: fMLP-enhanced 32P incorporation into PI, PIP and PIP2 in neutrophils; type: cell-based, human; conditions: fMLP 1 μM; pre-incubation of neutrophils
Description: Metabolic incorporation of [^32 P]sodium phosphate (4 mCi) into phosphatidylinositol (PI), phosphatidylinositol-4-phosphate (PIP) and phosphatidylinositol-4,5-bis-diphosphate (PIP2) is enhanced by chemotactic peptide fMLP (1 μM).

platelets = experiment: platelet aggregation (aggregometer, thrombin or ADP); type: cell-based; conditions: background statement
Description: Platelets were isolated from platelet-rich plasma (purchased from the Oregon Red Cross, Portland, Oreg.). Contaminating erythrocytes were removed by centrifugation (80×g for 10 minutes). Platelets were obtained by centrifugation (300×g for 10 minutes), washed once in Tyrode buffer (pH 6.5) containing 22 mM trisodium citrate and 0.35% (w/v) BSA and resuspended in the same buffer to obtain a concentration of 1-2×10^9 platelets/ml. All procedures were performed at room temperature.
A suspension of platelets (about 3.5×10^8 /ml) in Tyrode buffer was preincubated with inhibitor compounds (H-7 [1-(5-isoquinolinylsulfonyl)-2-methylpiperazine, a synthetic protein kinase-C inhibitor purchased from Seikagaku America Inc., St. Petersburg, Fla.], Calphostin-C [a synthetic protein kinase-C inhibitor obtained from Dr. Saitoh, Kyowa Hakko Co., Ltd., Machida, Tokyo, Japan], sphingosine [purchased from Sigma, St. Louis, Mo.] and dimethylsphingosine and trimethylsphingosine [synthesized according to Igarashi et al., Biochem., 28, 6796, 1989]) followed by addition of thrombin or ADP (both purchased from Sigma). Platelet aggregation was evaluated by transmittance change using an aggregometer (Chrono-log Corp., Havertown, Pa.) equipped with a computer analyzer.

neutrophils [4] = experiment: superoxide production in neutrophils (reduction of cytochrome C); type: cell-based, human
Description: Human neutrophils were obtained from normal male adults. Heparinized peripheral blood was mixed gently with an equal amount of 1% dextran solution in PBS in a 60 ml injection syringe. The mixture was allowed to sit vertically for 60 to 90 minutes at 37° C. The upper phase, which is rich in white blood cells, was mounted gently on the same volume of Ficoll-Paque (Pharmacia LKB, Uppsala, Sweden) in Falcon 2095 plastic test tubes (Becton Dickinson Labware, Lincoln Park, N.J.). Centrifugation at 450g for 30 min at 4° C. brought the neutrophils to the bottom of the tubes. The upper phase and interface, which contains lymphocytes, were removed carefully by aspiration.
Contaminating erythrocytes were removed from the cell pellet by hypotonic lysis by resuspending the cell pellet in ice-cold distilled water for 30 sec then adding an equal volume of ice-cold 1.8% NaCl solution. After centrifugation at 80g for 10 min, the cells were resuspended with a suitable buffer or media.
The final preparation consisted of more than 98% neutrophils, as determined by Wright-Giemsa staining. The suspension was stored at 4° C. and used within 3 hr.

neutrophils [5] = experiment: PMA-dependent O2 consumption of neutrophils; type: cell-based, human

CCCCCCCCCCCCC/C=C/C(O)C(CO)[N+](C)(C)C (stereo not drawn) [TMS, N,N,N-trimethylsphingosine]
GMP-140 expression (GMP-140): down-regulated or blocked; also recorded: inhibits GMP-140 expression | HL60 cell binding (HL60 cells): inhibited strongly | Phagokinetic activity (neutrophils [1]): suppressed significantly | erythrocyte metabolic activity (erythrocyte): retards erythrocyte metabolic activity | Neutrophil migration (neutrophils [2]): inhibited strongly | fMLP-dependent enhancement of 32P incorporation into PI, PIP and PIP2 (neutrophils [3]): suppressed strongly | Platelet aggregation and associated ATP secretion (platelets): inhibited strongly | Superoxide production in neutrophils (neutrophils [4]): inhibited by TMS in a dose-dependent manner | PMA-dependent enhancement of O2 consumption (neutrophils [5]): inhibited strongly
